Experimental data reported in paper PMC6658998, “Pharmacological characterization of the seven human NOX isoforms and their inhibitors” (Redox Biology, 2019).

Columns and labels:
human NOX1 = biological target: T1, human NOX1 (Homo sapiens, UniProt Q9Y5S8); assay: WST-1 O2•- detection in NOX1-expressing CHO cells; type: cell-based; details: WST-1, PMA 0.1 μM
T1 construct: expressed in transfected cells; host or cells: CHO
T1 sequence (Q9Y5S8 1-564): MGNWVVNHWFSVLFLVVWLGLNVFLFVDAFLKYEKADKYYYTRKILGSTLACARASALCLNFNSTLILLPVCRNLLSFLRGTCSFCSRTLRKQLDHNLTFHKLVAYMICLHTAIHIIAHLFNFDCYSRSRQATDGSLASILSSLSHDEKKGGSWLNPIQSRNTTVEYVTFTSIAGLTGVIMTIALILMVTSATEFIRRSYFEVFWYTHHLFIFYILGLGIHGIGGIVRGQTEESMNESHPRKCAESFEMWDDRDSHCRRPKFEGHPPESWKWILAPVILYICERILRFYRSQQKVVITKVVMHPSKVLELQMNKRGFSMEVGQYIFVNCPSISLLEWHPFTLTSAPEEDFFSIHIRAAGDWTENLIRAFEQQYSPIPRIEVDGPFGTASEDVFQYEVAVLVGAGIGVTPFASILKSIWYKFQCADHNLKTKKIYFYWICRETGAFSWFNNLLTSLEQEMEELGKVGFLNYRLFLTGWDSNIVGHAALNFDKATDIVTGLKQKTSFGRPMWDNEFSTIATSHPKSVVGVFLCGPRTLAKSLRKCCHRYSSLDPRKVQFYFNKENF
T1 sequence (P13498 1-195 partner): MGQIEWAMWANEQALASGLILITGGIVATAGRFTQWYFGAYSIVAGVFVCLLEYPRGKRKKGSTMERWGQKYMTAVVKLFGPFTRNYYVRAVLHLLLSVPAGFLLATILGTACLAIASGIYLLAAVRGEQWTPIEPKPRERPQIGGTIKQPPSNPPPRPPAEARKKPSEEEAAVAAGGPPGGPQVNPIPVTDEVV

DUOX2 = biological target: T2, DUOX2 (Homo sapiens, UniProt Q9NRD8); assay: Amplex Red/HRP H2O2 detection in DUOX2-expressing HEK293 cells; type: cell-based; details: PMA 0.1 μM and ionomycin 1 μM, read-out: IC50 DUOX2 (HEK) AR
T2 construct: expressed in transfected cells; host or cells: HEK293, selected with G418 and zeocin

NOX2 [1] = biological target: T3, NOX2 (Homo sapiens, UniProt P04839); assay: NOX2 activity in purified PLB-985 membranes (WST-1, CBA); type: biochemical
T3 sequence (P04839 2-570 limits assumed): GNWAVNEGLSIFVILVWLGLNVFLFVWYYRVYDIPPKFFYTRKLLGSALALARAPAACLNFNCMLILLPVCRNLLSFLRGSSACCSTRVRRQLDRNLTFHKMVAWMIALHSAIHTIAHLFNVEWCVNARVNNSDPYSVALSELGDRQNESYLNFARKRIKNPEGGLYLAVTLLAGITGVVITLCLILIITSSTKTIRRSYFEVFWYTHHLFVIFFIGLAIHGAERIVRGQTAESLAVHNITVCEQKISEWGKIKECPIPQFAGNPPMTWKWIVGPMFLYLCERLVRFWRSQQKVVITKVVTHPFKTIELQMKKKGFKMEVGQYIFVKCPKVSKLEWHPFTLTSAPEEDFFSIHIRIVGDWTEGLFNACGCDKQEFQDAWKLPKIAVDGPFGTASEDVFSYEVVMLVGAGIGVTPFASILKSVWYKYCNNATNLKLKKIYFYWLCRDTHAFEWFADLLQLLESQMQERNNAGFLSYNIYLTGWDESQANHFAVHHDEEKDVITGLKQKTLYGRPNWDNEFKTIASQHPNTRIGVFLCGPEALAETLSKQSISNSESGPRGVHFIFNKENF
Method: PLB-985 (40 dishes 150 cm^2) were grown in suspension and differentiated by addition of 1.25% DMSO for 72 h. HEK293 cells expressing NOX5 (40 dishes 150 cm^2) were amplified until confluence and detached using trypsin-EDTA for 5 min followed by addition of 2 vol of pre-warmed complete growth media to inactivate trypsin. Collected cells were centrifuged at 4000 ×g for 10 min. Cells were washed with PBS and centrifuged at 1500 ×g for 10 min. The supernatant was discarded and the pellet was placed at −80 °C for at least 30 min. […] Samples were sonicated two times for 25 s (level 7, Branson Sonifier 250). Cell debris were removed by centrifugation at 800 ×g for 10 min at 4 °C. […] Protein concentration was determined with Bradford reagent using BSA as a standard. […]
NOX2 containing membranes were used at 10 μg/mL of proteins in a reaction mixture containing 90 nM recombinant RacQ61L, 45 nM recombinant p67Np47 N chimeric protein (consisting of a fusion of the N-termini of human p67phox [residues 1–210] and p47phox [residues 1–286]), 90 μM SDS, 1 μM FAD-Na2 and 1 mM WST-1 or 800 μM CBA in PBS. The reaction mixture was dispensed in 96-well plates (transparent for WST-1 absorbance, black for CBA fluorescence) at 80 μL/well and the plate was incubated for 5 min at 37 °C. […]

NOX4 = NOX4 (Homo sapiens, UniProt Q9NPH5); details: NOX4 T-rex cells, tetracycline 24 h, antimycin A 1 μM, compound 10 μM
all NOX isoforms = details: compound 10 μM, NOX1-5, DUOX1, DUOX2 cell lines
NOX2 [2] = biological target: NOX2; design: method as in PMID 27273790; details: documented values, measured using Amplex Red/HRP assay; cited from earlier work
NOX5 = biological target: NOX5; design: method as in PMID 27273790; details: documented values, measured using Amplex Red/HRP assay; cited from earlier work
NOX1 = biological target: NOX1; design: method as in PMID 27273790; details: documented values, measured using Amplex Red/HRP assay; cited from earlier work

T2 sequence (Q9NRD8 26-1548): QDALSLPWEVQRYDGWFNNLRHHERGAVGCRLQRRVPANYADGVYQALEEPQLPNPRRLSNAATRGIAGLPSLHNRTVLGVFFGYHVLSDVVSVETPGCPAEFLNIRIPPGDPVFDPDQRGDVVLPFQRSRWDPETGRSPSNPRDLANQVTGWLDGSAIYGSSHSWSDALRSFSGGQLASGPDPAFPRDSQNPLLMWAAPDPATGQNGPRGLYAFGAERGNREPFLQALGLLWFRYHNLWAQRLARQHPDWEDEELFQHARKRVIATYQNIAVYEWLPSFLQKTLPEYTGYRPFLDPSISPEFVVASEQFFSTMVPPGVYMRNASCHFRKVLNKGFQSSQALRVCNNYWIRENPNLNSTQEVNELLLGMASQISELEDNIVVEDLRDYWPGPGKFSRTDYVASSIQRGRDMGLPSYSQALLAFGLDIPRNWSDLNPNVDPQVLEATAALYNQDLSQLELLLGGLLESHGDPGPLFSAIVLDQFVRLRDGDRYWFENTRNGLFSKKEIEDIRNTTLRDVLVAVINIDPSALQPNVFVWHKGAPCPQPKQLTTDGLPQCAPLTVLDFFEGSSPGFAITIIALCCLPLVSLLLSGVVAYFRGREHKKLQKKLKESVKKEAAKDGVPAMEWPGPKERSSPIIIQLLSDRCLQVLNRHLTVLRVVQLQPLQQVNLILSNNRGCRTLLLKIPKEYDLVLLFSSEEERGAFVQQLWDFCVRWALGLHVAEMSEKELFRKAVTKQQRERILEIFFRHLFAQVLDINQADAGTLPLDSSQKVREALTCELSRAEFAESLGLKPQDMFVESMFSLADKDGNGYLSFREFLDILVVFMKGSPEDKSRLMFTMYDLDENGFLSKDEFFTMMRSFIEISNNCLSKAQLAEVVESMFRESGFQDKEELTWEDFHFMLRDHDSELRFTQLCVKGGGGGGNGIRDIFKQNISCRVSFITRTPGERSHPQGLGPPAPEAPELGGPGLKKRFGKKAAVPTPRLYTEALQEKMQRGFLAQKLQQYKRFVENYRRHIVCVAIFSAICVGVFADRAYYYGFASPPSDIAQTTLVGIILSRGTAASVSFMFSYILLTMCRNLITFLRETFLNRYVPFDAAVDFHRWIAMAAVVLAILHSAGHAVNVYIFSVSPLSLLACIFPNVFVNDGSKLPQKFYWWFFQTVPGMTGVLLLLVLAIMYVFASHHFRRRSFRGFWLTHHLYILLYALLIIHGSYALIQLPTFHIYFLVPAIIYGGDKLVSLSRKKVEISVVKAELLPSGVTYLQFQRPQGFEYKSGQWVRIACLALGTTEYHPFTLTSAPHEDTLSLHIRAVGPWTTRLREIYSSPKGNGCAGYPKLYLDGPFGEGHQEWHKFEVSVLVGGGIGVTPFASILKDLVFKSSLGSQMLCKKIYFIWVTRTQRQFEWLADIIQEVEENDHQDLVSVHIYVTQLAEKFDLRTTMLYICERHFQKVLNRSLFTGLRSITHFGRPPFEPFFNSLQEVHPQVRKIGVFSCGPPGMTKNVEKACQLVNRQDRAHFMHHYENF
T2 sequence (Q1HG44 whole entry partner): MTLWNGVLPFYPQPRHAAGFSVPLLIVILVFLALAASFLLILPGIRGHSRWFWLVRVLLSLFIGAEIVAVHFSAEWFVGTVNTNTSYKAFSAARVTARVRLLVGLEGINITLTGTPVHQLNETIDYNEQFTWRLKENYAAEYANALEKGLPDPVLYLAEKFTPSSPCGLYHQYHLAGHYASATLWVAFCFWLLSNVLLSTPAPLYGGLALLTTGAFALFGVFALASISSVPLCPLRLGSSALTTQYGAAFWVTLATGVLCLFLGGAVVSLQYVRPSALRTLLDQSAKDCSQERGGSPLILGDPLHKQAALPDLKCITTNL
NOX4, sequence (Q9NPH5 whole entry, one chain of several, canonical isoform): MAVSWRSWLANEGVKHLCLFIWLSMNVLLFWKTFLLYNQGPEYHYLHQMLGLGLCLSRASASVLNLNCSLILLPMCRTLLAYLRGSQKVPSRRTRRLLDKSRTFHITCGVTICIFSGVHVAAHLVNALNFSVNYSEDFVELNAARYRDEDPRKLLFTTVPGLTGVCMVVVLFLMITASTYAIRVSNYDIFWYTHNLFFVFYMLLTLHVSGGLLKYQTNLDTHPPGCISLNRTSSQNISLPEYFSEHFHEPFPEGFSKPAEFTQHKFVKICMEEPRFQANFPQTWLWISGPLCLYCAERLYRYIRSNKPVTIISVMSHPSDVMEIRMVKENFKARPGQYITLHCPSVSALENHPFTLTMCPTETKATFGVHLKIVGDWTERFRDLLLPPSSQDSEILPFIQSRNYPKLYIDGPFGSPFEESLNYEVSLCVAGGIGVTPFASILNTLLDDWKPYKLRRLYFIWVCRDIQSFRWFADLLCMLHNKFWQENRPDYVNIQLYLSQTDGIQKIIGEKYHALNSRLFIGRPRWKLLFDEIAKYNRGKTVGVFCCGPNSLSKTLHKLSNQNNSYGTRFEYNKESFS

IC50 (human NOX1)	IC50 (DUOX2)	SMILES	further results
> 50 µM	> 50 µM	COc1cc(C(C)=O)ccc1O [Apocynin, apocynin]	
		c1ccc2c(c1)[I+]c1ccccc1-2 [DPI, diphenylene iodonium chloride]	Inhibitory activity in NOX2 membrane assay (NOX2 [1]; WST-1 / CBA, concentration not given): potently inhibited; Inhibition of NOX4-dependent (non-mitochondrial) oxygen consumption (NOX4): inhibited; Inhibition of NOX isoforms in cell lines (all NOX isoforms): inhibits all NOX isoforms
> 50 µM	21.7 µM	COc1cc(C(C)=O)cc(-c2cc(C(C)=O)cc(OC)c2O)c1O [Diapocynin, diapocynin]	
> 50 µM	9.8 µM	Cc1c2c(=O)n(-c3ccccc3Cl)[nH]c2cc(=O)n1Cc1ccccn1 [GKT136901]	Ki NOX2 (NOX2 [2]): micromolar range; Ki NOX5 (NOX5): nanomolar range; Ki NOX1 (NOX1): nanomolar range

SMILES	IC50 (human NOX1)	IC50 (DUOX2)	further results
O=c1c2ccccc2[se]n1-c1ccccc1 [Ebselen, ebselen]	31.6 µM	4.2 µM	Inhibition of NOX2-dependent signal in membranes (NOX2 [1]; compound 50 μM): inhibited
